Results: PubChem BioAssay (NCI)
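Exposure lasted 48 hours, with cells grown in 96-well plates and compounds tested at five concentrations. GI50 is the concentration that inhibits growth by half. TGI: total growth inhibition.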

Assays:
Experiment in all cases: DTP human tumour cell line panel, 48 h
[1] = test system: SK-MEL-2 melanoma
[2] = test system: MDA-MB-435
[3] = test system: UACC-62 melanoma
[4] = test system: A498 renal
[5] = test system: MOLT-4 leukemia
[6] = test system: KM12 colon
[7] = test system: SK-OV-3 ovarian
[8] = test system: SK-MEL-5 melanoma
[9] = test system: RXF 393 renal
[10] = test system: SF-268 CNS
[11] = test system: NCI-H23 lung
[12] = test system: HOP-62 NSCLC
[13] = test system: OVCAR-3 ovarian
[14] = test system: MDA-MB-231 breast
[15] = test system: CAKI-1 renal
[16] = test system: LOX IMVI melanoma
[17] = test system: NCI-H460 lung
[18] = test system: SNB-19 CNS
[19] = test system: PC-3 prostate
[20] = test system: M14 melanoma
[21] = test system: UO-31 renal
[22] = test system: SK-MEL-28 melanoma
[23] = test system: HOP-92 NSCLC
[24] = test system: MALME-3M melanoma
[25] = test system: NCI/ADR-RES ovarian
[26] = test system: A549 NSCLC
[27] = test system: CCRF-CEM leukemia
[28] = test system: K-562 leukemia
[29] = test system: SW-620 colon
[30] = test system: HT29 colon
[31] = test system: IGROV1 ovarian
[32] = test system: NCI-H226 lung
[33] = test system: U251 CNS
[34] = test system: HL-60(TB) leukemia
[35] = test system: HCT-15 colon
[36] = test system: SR leukemia
[37] = test system: HCC-2998 colon
[38] = test system: SNB-75 CNS
[39] = test system: 786-0 renal
[40] = test system: RPMI-8226 leukemia
[41] = test system: HCT-116 colon
[42] = test system: SF-539 CNS
[43] = test system: COLO 205 colon
[44] = test system: MCF7 breast
[45] = test system: HS 578T breast
[46] = test system: DU-145 prostate
[47] = test system: OVCAR-8 ovarian
[48] = test system: OVCAR-4 ovarian
[49] = test system: ACHN renal
[50] = test system: BT-549 breast
[51] = test system: OVCAR-5 ovarian
[52] = test system: TK-10 renal
[53] = test system: SF-295 CNS
[54] = test system: SN12C renal
[55] = test system: EKVX NSCLC
[56] = test system: T-47D breast
[57] = test system: NCI-H522 lung

Cn1cc(-c2nonc2-c2cn(C)c3ccc(F)cc23)c2ccccc21
GI50 [1]: 0.552 µM | TGI [1]: > 100 µM | GI50 [2]: 0.199 µM | TGI [2]: 0.623 µM | GI50 [3]: 0.469 µM | TGI [3]: > 100 µM | GI50 [4]: 0.273 µM | TGI [4]: 0.976 µM | GI50 [5]: 0.685 µM | TGI [5]: > 100 µM | GI50 [6]: 0.433 µM | TGI [6]: > 100 µM | GI50 [7]: 0.594 µM | TGI [7]: > 100 µM | GI50 [8]: 0.502 µM | TGI [8]: > 100 µM | GI50 [9]: 0.271 µM | TGI [9]: 0.873 µM | GI50 [10]: 1.21 µM | TGI [10]: > 100 µM | GI50 [11]: 0.836 µM | TGI [11]: > 100 µM | GI50 [12]: 0.59 µM | TGI [12]: > 100 µM | GI50 [13]: 0.34 µM | GI50 [14]: 0.869 µM | TGI [14]: > 100 µM | GI50 [15]: 0.416 µM | TGI [15]: > 100 µM | GI50 [16]: 0.564 µM | TGI [16]: > 100 µM | GI50 [17]: 0.39 µM | TGI [17]: > 100 µM | GI50 [18]: 0.555 µM | TGI [18]: > 100 µM | GI50 [19]: 0.427 µM | TGI [19]: > 100 µM | GI50 [20]: 0.342 µM | TGI [20]: > 100 µM | GI50 [21]: 0.438 µM | TGI [21]: > 100 µM | GI50 [22]: 3.5 µM | TGI [22]: > 100 µM | GI50 [23]: 0.439 µM | TGI [23]: > 100 µM | GI50 [24]: 0.54 µM | TGI [24]: > 100 µM | GI50 [25]: 0.395 µM | TGI [25]: > 58.3 µM | GI50 [26]: 0.703 µM | TGI [26]: > 100 µM | GI50 [27]: 0.319 µM | TGI [27]: > 100 µM | GI50 [28]: 0.311 µM | TGI [28]: > 100 µM | GI50 [29]: 0.361 µM | TGI [29]: > 100 µM | GI50 [30]: 0.346 µM | TGI [30]: > 100 µM | GI50 [31]: 0.522 µM | TGI [31]: > 100 µM | GI50 [32]: 2.56 µM | TGI [32]: > 100 µM | GI50 [33]: 0.469 µM | TGI [33]: > 100 µM | GI50 [34]: 0.306 µM | TGI [34]: 2.3 µM | GI50 [35]: 0.398 µM | TGI [35]: > 100 µM | GI50 [36]: 0.269 µM | TGI [36]: > 100 µM | GI50 [37]: 0.958 µM | TGI [37]: > 100 µM | GI50 [38]: 0.206 µM | TGI [38]: 0.702 µM | GI50 [39]: 0.614 µM | TGI [39]: > 100 µM | GI50 [40]: 0.463 µM | TGI [40]: > 100 µM | GI50 [41]: 0.432 µM | TGI [41]: > 100 µM | GI50 [42]: 0.291 µM | TGI [42]: 1.58 µM | GI50 [43]: 0.856 µM | TGI [43]: > 100 µM | GI50 [44]: 0.366 µM | TGI [44]: > 100 µM | GI50 [45]: 0.299 µM | GI50 [46]: 0.53 µM | TGI [46]: > 100 µM | GI50 [47]: 0.63 µM | TGI [47]: > 100 µM | TGI [48]: > 100 µM | GI50 [49]: 0.595 µM | TGI [49]: > 100 µM | GI50 [50]: 0.923 µM | TGI [50]: > 100 µM | GI50 [51]: 1.05 µM | TGI [51]: > 100 µM | GI50 [52]: > 20.4 µM | TGI [52]: > 100 µM | GI50 [53]: 0.299 µM | GI50 [54]: 0.724 µM | TGI [54]: > 100 µM | GI50 [55]: 0.721 µM | TGI [55]: > 100 µM | GI50 [56]: 0.809 µM | TGI [56]: > 100 µM | GI50 [57]: 0.357 µM | TGI [57]: > 100 µM
